# From publication PMC4389225, “Triaminopyrimidine is a fast-killing and long-acting antimalarial clinical candidate” (Nature Communications, 2015)
# “And” between values parts separate entries of the source, which are not always exact repeats. Equal entries are not always repeated. Where two headings read alike, the source gives them in different places.
# Experiments:
# Dd2-HSP90 = assay: microbe, parasite or virus in culture; format: cell-based, P. falciparum
# Protocol: (§1) To eliminate overlapping mode of action with known targets, cross-resistance testing of representative TAPs against drug-resistant lines with well-characterized mutations in Pf dihydroorotate dehydrogenase, Pf heat-shock protein 90, Pf chloroquine resistance transporter[25] or Pf cytochrome b reduction site[26] was performed. […] Assays were carried out in 384-well format with three technical replicates within an assay day and biological replicates carried out on three different assay days to assign a final EC50.
# (§2) A representative TAP (compound 6) was tested for its activity against a panel of P. falciparum strains known to harbour mutations conferring resistance to antimalarial agents under development. Artesunate and amodiaquine were included as additional control […]
# (§3) Values are the means ± standard deviation derived from three independent assays performed
# Dd2-PfCRT = assay: SYBR green growth assay, Dd2-PfCRT mutant; format: cell-based, P. falciparum
# Protocol: as §1, §2, §3
# Dd2-CYTbQi = assay: SYBR green growth assay, Dd2-CYTbQi mutant; format: cell-based, P. falciparum
# Protocol: as §1, §2, §3
# Dd2 [1] = assay: SYBR green growth assay, Dd2 (parental); format: cell-based, P. falciparum; settings: mean ± SD
# Protocol: as §1, §2, §3
# Dd2-DHODH = assay: SYBR green growth assay, Dd2-DHODH mutant; format: cell-based, P. falciparum
# Protocol: as §1, §2, §3
# Pf 7G8 = assay: microbe, parasite or virus in culture; format: cell-based; settings: Plasmodium falciparum
# Description: (§4) tested in duplicate from two independent experiments using a SYBR-Green based assay2.
# (§5) (1 picture or pasted object on this page, not shown here)
# Pf SB1 = assay: microbe, parasite or virus in culture; format: cell-based; settings: Plasmodium falciparum
# Description: as §4, §5
# Pf K1 = assay: microbe, parasite or virus in culture; format: cell-based; settings: Plasmodium falciparum
# Description: as §4, §5
# Pf NF54 = assay: microbe, parasite or virus in culture; format: cell-based; settings: Plasmodium falciparum
# Description: as §4, §5
# Pf DD2 = assay: microbe, parasite or virus in culture; format: cell-based; settings: Plasmodium falciparum
# Description: as §4, §5
# Pf W2 = assay: microbe, parasite or virus in culture; format: cell-based; settings: Plasmodium falciparum
# Description: as §4, §5
# Dd2-6R F4 D4 = assay: SYBR green growth assay, Dd2-6R F4 D4; settings: Plasmodium falciparum
# Description: (§7) The drug was then washed off and the parasites were allowed to recover in normal growth media.
# Dd2-6R F2 D8 = assay: SYBR green growth assay, Dd2-6R F2 D8; settings: Plasmodium falciparum
# Description: as §7
# Dd2-6R F2 C5 = assay: SYBR green growth assay, Dd2-6R F2 C5; settings: Plasmodium falciparum
# Description: as §7
# Dd2-6R F2 B5 = assay: SYBR green growth assay, Dd2-6R F2 B5; settings: for IC50: Plasmodium falciparum, DD2
# Description: as §7
# Dd2-6R F4 G7 = assay: SYBR green growth assay, Dd2-6R F4 G7; settings: Plasmodium falciparum
# Description: as §7
# Dd2 DHODH DSM265 = assay: [3H]-hypoxanthine incorporation assay, Dd2 DHODH DSM265 resistant; format: cell-based; settings: Plasmodium falciparum
# Protocol: (§6) Supplementary Table 3: Compound 9 and 12 retain their activity against Pf strains harbouring mutations to novel antimalarial agents in clinical development. Compound 9 and 12 were tested for their antiplasmodial activity against a panel of Pf strains known to harbour mutations conferring resistance to novel agents under clinical development. Parasite growth inhibition is measured using the [3H]-hypoxanthine incorporation assay. IC50s are established for each strain (n ≥2) and compared to the IC50 of Dd2 (standard pan-resistant […]
# Dd2 bc-1 ELQ-300 = assay: [3H]-hypoxanthine incorporation assay, Dd2 bc-1 ELQ-300 resistant; format: cell-based, Plasmodium falciparum; settings: Dd2 bc-1 ELQ-300; read-out: IC50
# Protocol: as §6
# Dd2 [2] = assay: [3H]-hypoxanthine incorporation assay, Dd2; format: cell-based, Plasmodium falciparum
# Protocol: 9 and 12 were tested for their antiplasmodial activity against a panel of Pf strains known to harbour mutations conferring resistance to novel agents under clinical development. Parasite growth inhibition is measured using the [3H]-hypoxanthine incorporation assay. IC50s are established for each strain (n ≥2) and compared to the IC50 of Dd2 (standard pan-resistant
# Dd2 PfATP4 NITD609 = assay: [3H]-hypoxanthine incorporation assay, Dd2 PfATP4 NITD609 resistant; format: cell-based; settings: Plasmodium falciparum
# Protocol: as §6
# [3] = target: T1, acetylcholine esterase (AChE) (Homo sapiens, UniProt P22303); assay: AChE enzyme activity assay (CEREP); format: biochemical; settings: read-out: AChE IC50
# T1 construct: purchased CEREP, France (external assay service) 0363
# Protocol: An in vitro pharmacological profiling panel was specifically designed for the detection of potential high- risk clinical adverse drug reactions. The panel comprised of 26 diverse targets (6 enzymes, 2 transporters, 9 G-protein-coupled receptors (GPCRs), 5 ion channels along with hERG, M2, alpha1A and AchE) and was conduced externally by CEREP, France […]. […] Detailed methodology for in vitro pharmacological profiling assays provided by CEREP can be found at http://www.cerep.fr, with specific reference to the AChE (cat. no. 0363), Muscarinic M1 receptor (cat. no. 0091) and Adrenergic α1A receptor (cat. no. 2338) assays. For enzyme and kinase assays, the results were expressed as a percent inhibition of control-specific activity obtained in the presence of the test compound. The IC50 values (concentration causing a half-maximal inhibition of control-specific activity) and Hill coefficients (nH) were determined by nonlinear regression analysis of the inhibition/concentration–response curves using Hill equation curve fitting as described earlier.
# hERG = target: T2, hERG (Homo sapiens, UniProt Q12809); assay: electrophysiology-based hERG assay using IonWorks HT (CHO cells); format: cell-based; settings: hERG IC50
# T2 construct: expressed in transfected cells; host or cells: CHO cells
# Protocol: hERG IC50 was determined in an electrophysiology-based hERG assay using IonWorks HT (CHO cells) as described earlier.
# [4] = Plasmodium falciparum, DD2, Dd2, Supplementary Table 2
# [5] = Plasmodium falciparum, DD2, Dd2 parental, Supplementary Table 13
# T2 sequence (Q12809 whole entry): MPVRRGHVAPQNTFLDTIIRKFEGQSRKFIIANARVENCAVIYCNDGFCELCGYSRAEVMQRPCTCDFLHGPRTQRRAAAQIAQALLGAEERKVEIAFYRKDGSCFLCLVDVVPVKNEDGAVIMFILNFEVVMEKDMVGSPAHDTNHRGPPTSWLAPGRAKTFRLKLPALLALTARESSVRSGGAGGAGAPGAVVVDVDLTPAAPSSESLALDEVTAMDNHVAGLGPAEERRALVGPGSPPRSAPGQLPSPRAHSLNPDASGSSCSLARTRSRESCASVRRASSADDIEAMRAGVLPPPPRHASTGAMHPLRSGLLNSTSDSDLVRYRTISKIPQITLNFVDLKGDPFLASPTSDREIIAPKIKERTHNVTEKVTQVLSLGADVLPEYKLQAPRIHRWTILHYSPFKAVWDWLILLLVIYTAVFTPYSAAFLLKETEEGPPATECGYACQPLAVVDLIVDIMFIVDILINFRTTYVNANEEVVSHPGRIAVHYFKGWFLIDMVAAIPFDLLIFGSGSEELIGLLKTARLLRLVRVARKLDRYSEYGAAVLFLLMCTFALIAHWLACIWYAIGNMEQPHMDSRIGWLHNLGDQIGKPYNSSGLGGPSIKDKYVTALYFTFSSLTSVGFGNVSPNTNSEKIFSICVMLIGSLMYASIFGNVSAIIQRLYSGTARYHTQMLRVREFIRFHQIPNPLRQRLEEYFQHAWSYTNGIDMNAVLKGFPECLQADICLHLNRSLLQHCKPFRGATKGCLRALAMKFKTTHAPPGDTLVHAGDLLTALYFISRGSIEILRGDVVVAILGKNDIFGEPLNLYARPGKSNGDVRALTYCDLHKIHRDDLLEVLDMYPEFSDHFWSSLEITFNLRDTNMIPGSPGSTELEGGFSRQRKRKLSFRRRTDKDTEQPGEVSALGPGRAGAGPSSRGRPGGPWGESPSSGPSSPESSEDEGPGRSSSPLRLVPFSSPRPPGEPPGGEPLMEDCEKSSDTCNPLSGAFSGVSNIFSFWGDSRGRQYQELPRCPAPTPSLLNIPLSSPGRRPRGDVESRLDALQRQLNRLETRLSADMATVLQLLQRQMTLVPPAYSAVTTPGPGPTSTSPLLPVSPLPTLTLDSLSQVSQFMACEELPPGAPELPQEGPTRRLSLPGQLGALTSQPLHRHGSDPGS
# T1 sequence (P22303 32-614): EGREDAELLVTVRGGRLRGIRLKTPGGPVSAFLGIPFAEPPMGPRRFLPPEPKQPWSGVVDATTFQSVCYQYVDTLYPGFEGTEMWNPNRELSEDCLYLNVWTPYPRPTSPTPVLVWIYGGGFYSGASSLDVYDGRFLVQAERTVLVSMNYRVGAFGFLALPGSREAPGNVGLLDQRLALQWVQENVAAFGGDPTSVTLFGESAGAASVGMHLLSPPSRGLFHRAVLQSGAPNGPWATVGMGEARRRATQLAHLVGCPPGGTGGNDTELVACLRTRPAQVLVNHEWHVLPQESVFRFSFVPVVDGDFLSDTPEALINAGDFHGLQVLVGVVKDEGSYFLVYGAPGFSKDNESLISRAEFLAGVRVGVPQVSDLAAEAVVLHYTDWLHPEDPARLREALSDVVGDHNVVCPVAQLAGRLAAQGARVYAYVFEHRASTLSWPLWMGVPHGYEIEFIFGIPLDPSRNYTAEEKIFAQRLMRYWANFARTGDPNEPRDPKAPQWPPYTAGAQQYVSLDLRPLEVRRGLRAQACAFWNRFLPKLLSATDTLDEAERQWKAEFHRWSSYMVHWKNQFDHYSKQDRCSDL
compound,measurement,setting,value
CCN(CC)Cc1cc(Nc2ccnc3cc(Cl)ccc23)ccc1O [Amodiaquine],IC50,"Dd2-HSP90; Plasmodium falciparum, DD2",8.96 ± 0.8 nM
same,IC50,"Dd2-PfCRT; Plasmodium falciparum, DD2",8.86 ± 1 nM
same,IC50,"Dd2-CYTbQi; Plasmodium falciparum, DD2",9.9 ± 3 nM
same,IC50,Dd2 [1]; [4],9.83 ± 0.4 nM
same,IC50,"Dd2-DHODH; Plasmodium falciparum, DD2",10.7 ± 2 nM
C[C@@H]1CC[C@H]2[C@@H](C)C(=O)O[C@@H]3O[C@@]4(C)CC[C@@H]1[C@]32OO4 [Artemisinin],IC50,Pf 7G8,1.3 ± 0.1 nM
same,IC50,Pf SB1,16.6 ± 5 nM
same,IC50,Pf K1,6.5 ± 2 nM
same,IC50,Pf NF54,7 ± 4 nM
same,IC50,Pf DD2,10.3 ± 2 nM
same,IC50,Pf W2,0.0065 ± 0.001 µM
C[C@H]1[C@H](OC(=O)CCC(=O)O)O[C@@H]2O[C@@]3(C)CC[C@H]4[C@H](C)CC[C@@H]1[C@@]24OO3 [Artesunate],IC50,"Dd2-HSP90; Plasmodium falciparum, DD2",1.29 ± 0.2 nM
same,IC50,"Dd2-PfCRT; Plasmodium falciparum, DD2",1.84 ± 0.3 nM
same,IC50,Dd2-6R F4 D4,1.6 ± 0.9 nM
same,IC50,"Dd2-CYTbQi; Plasmodium falciparum, DD2",1.26 ± 0.4 nM
same,IC50,Dd2 [1]; [4],1.51 ± 0.2 nM
same,IC50,Dd2 [1]; [5],2.6 ± 1.3 nM
same,IC50,Dd2-6R F2 D8,1.4 ± 0.1 nM
same,IC50,Dd2-6R F2 C5,1.2 ± 0.1 nM
same,IC50,Dd2-6R F2 B5,1.6 ± 0.2 nM
same,IC50,"Dd2-DHODH; Plasmodium falciparum, DD2",1.81 ± 0.3 nM
same,IC50,Dd2-6R F4 G7,1.6 nM
O=C1C(O)=C([C@H]2CC[C@H](c3ccc(Cl)cc3)CC2)C(=O)c2ccccc21 [Atovaquone],IC50,Pf 7G8,2.3 ± 0.7 nM
same,IC50,Pf SB1,> 2000 nM
same,IC50,Pf K1,2.3 ± 0.8 nM
same,IC50,Pf DD2,2 ± 0.02 nM
CCN(CC)CCCC(C)Nc1ccnc2cc(Cl)ccc12 (stereo not shown) [Chloroquine],IC50,Pf SB1,11.8 ± 4.5 nM
"Cc1cc(Nc2ccc(S(F)(F)(F)(F)F)cc2)n2nc(C(C)(F)F)nc2n1 [DSM265, reference compound]",IC50,Dd2 DHODH DSM265,48 nM
"COc1cc2[nH]c(C)c(-c3ccc(Oc4ccc(OC(F)(F)F)cc4)cc3)c(=O)c2cc1Cl [ELQ-300, reference compound]",IC50,Dd2 bc-1 ELQ-300,125 nM
same,IC50,"Dd2 [2]; Dd2, [3H]-hypoxanthine, read-out: IC50",20 nM
COC1=C2C[C@@H](C)C[C@H](OC)[C@H](O)[C@@H](C)/C=C(\C)[C@H](OC(N)=O)[C@@H](OC)/C=C\C=C(/C)C(=O)NC(=CC1=O)C2=O [Geldanamycin],IC50,"Dd2-PfCRT; Plasmodium falciparum, DD2",204 ± 20 nM
same,IC50,"Dd2-CYTbQi; Plasmodium falciparum, DD2",169 ± 40 nM
same,IC50,Dd2 [1]; [4],176 ± 30 nM
same,IC50,"Dd2-DHODH; Plasmodium falciparum, DD2",257 ± 40 nM
Cc1nc2c(C#N)cccc2n1-c1ccc(C(=O)NC2CC2)s1 [Genz-669178],IC50,"Dd2-HSP90; Dd2-HSP90, mean ± SD, read-out: IC50",16.2 ± 2 nM
same,IC50,"Dd2-PfCRT; Dd2-PfCRT, mean ± SD, read-out: IC50",5.07 ± 4 nM
same,IC50,"Dd2-CYTbQi; Dd2-CYTbQi, mean ± SD, read-out: IC50",9.94 ± 0.9 nM
same,IC50,"Dd2 [1]; Dd2, Supplementary Table 2, read-out: IC50",5.79 ± 1 nM
same,IC50,"Dd2-DHODH; Dd2-DHODH, mean ± SD, read-out: IC50",76.8 ± 10 nM
CCCCN(CCCC)CC(O)c1cc(Cl)cc2c1-c1ccc(Cl)cc1/C2=C/c1ccc(Cl)cc1 (stereo not shown) [Lumefantrine],IC50,Dd2-6R F4 D4,6.4 ± 2.4 nM
same,IC50,Dd2 [1]; [5],15.6 ± 4.8 nM
same,IC50,Dd2-6R F2 D8,6 ± 1.7 nM
same,IC50,Dd2-6R F2 C5,5.7 ± 1 nM
same,IC50,Dd2-6R F2 B5,6.8 ± 2 nM
same,IC50,Dd2-6R F4 G7,5.1 nM
OC(c1cc(C(F)(F)F)nc2c(C(F)(F)F)cccc12)C1CCCCN1 (stereo not shown) [Mefloquine],IC50,Dd2-6R F4 D4,11.7 nM
same,IC50,Dd2 [1]; [5],30.1 ± 7.2 nM
same,IC50,Dd2-6R F2 D8,12 nM
same,IC50,Dd2-6R F2 C5,12.1 nM
same,IC50,Dd2-6R F2 B5,11.7 ± 2.6 nM
same,IC50,Dd2-6R F4 G7,10.7 nM
"C[C@H]1Cc2c([nH]c3cc(Cl)c(F)cc23)[C@@]2(N1)C(=O)Nc1ccc(Cl)cc12 [NITD609, reference compound]",IC50,Dd2 PfATP4 NITD609,1.7 nM
same,IC50,"Dd2 [2]; Plasmodium falciparum, DD2",0.6 nM
CCc1nc(N)nc(N)c1-c1ccc(Cl)cc1 [Pyrimethamine],IC50,Pf 7G8,10000 ± 1260 nM
same,IC50,Pf SB1,10.8 ± 4 nM
same,IC50,Pf K1,8560 ± 1980 nM
same,IC50,Pf NF54,28.3 ± 11 nM
same,IC50,Pf DD2,13800 ± 8620 nM
same,IC50,Pf W2,15.4 ± 2.83 µM
CNc1nc(Nc2ccc(OCC(F)(F)F)c(C)n2)ncc1N1CCN[C@H](C)C1 [compound 6],IC50,"Dd2-HSP90; Plasmodium falciparum, DD2",27.9 ± 7 nM
same,IC50,"Dd2-PfCRT; Plasmodium falciparum, DD2",18.9 ± 1 nM
same,IC50,Dd2-6R F4 D4,98.9 nM
same,IC50,"Dd2-CYTbQi; Plasmodium falciparum, DD2",25.7 ± 5 nM
same,IC50,Dd2 [1]; [4],29.5 ± 3 nM
same,IC50,Dd2 [1]; [5],38.7 ± 1.1 nM
same,IC50,Dd2-6R F2 D8,95.7 nM
same,IC50,Dd2-6R F2 C5,96.3 nM
same,IC50,Dd2-6R F2 B5,102 nM
same,increase in IC50 compared with the parental Dd2 line,Dd2-6R F2 B5; compound 6-resistant Dd2-6R clones (five clones),3-6 fold and 3 fold
same,IC50,"Dd2-DHODH; Plasmodium falciparum, DD2",23.2 ± 5 nM
same,IC50,Dd2-6R F4 G7,112 nM
"Cc1nc(Nc2ncc(N3CCN[C@H](C)C3)c(Nc3cc(C)n(C)n3)n2)ccc1F [compound 7, (R)-N4-(1,5-dimethyl-1H-pyrazol-3-yl)-N2-(5-fluoro-6-methylpyridin-2-yl)-5-(3-methylpiperazin-1-yl)pyrimidine-2,4-diamine]",IC50,[3],66 µM
same,IC50,hERG,> 33 µM
